Where only a bound is given, the exact number is not on record here.

22 compounds from US6814960B1, “Hydroxystilbene compounds used as microbicidal active substances” (Ciba Specialty Chemicals Corporation, priority 1998, dated 2004) can be followed below.

Holding throughout (assay): MIC value in microtitre plates (optical density)
Holding throughout (format): cell-based

For experiment [1], the system named is Staphylococcus hominis DSM 20328. The following applies: microtitre plate, CASO bouillon, 48 hours at 37° C., optical density 620 nm, ≦20% growth; some data indicative values. The method, then: (§1) Determination of the Minimum Inhibiting Concentration (MIC Value) in Microtitre Plates
(§2) Casein/soybean flour peptone bouillon for the preparation of the precultures of the test bacteria and yeast.
(§3) Mycological slant agar for the preculture of moulds.
(§4) Examples of Test Organisms
(§5) The test substances are predissolved in dimethyl sulfoxide (DMSO) and tested in a serial dilution of 1:2.
(§6) Bacteria and yeast are cultured overnight in CASO bouillon, the mould on mycological slant agar and rinsed off with 10 ml of 0.85% sodium chloride solution (+0.1% TritonX-100).
(§7) All test organisms are adjusted to an organism count of 1.5×10^6 CFU/ml with 0.85% sodium chloride solution.
(§8) The test substances are prepipetted into microtitre plates in an amount of 8 μl per well.
(§9) Previously diluted organism substances are diluted 1:100 in CASO bouillon (bacteria and yeast) and Sabouraud 2% glucose bouillon (mould) and added to the test substances in an amount of 192 μl per well.
(§10) The test batches are incubated for 48 hours at 37° C. (bacteria and yeast) or for 5 days at 28° C. (mould).
(§11) After incubation, the growth is determined by reference to the turbidity of the test batches (optical density) at 620 nm in a microplate reader.
(§12) The minimum inhibiting concentration (MIC value) is the concentration of substance at which (compared with the growth control) an appreciable inhibition of the growth (≦20% growth) of the test organisms is ascertained.
(§13) One microtiter plate is used for each test organism and substance concentration. All substances tested in duplicate.

Experiment [2] deals with Escherichia coli NCTC 8196. The conditions noted are these: microtitre plate, CASO bouillon, 48 hours at 37° C., optical density 620 nm, ≦20% growth; some data indicative values. The protocol: as §1, §2, §3, §4, §5, §6, §7, §8, §9, §10, §11, §12, §13
The subject of experiment [3] is Aspergillus niger ATCC 6275. The conditions noted are these: microtitre plate, Sabouraud 2% glucose bouillon, 5 days at 28° C., optical density 620 nm, ≦20% growth; some data indicative values. The method, then: as §1, §2, §3, §4, §5, §6, §7, §8, §9, §10, §11, §12, §13
The test system of experiment [4] is Candida albicans ATCC 10231. The following applies: microtitre plate, CASO bouillon, 48 hours at 37° C., optical density 620 nm, ≦20% growth; some data indicative values. The protocol: as §1, §2, §3, §4, §5, §6, §7, §8, §9, §10, §11, §12, §13
Experiment [5] concerns Pseudomonas aeruginosa CIP A-22. The following applies: microtitre plate, CASO bouillon, 48 hours at 37° C., optical density 620 nm, ≦20% growth; some data indicative values. The protocol: as §1, §2, §3, §4, §5, §6, §7, §8, §9, §10, §11, §12, §13

`COc1ccc(/C=C/c2ccc(-c3ccccc3)cc2)cc1O` [Comp. of formula 146]: in experiment [1], the “MIC values S. heminis” value is over 100 ppm. In addition, the “MIC values E. coli” value in experiment [2] is reported as over 100 ppm. Besides, in experiment [3], the “MIC values A. niger” value is reported as over 100 ppm. Moreover, in experiment [4], the “MIC values C. albicans” value is on record as over 100 ppm. For the same compound, in experiment [5], the “MIC values P. aeruginosa” value is given as over 100 ppm.
For `Oc1ccc(/C=C/c2ccccc2)cc1` [Comp. of formula 107], the “MIC values S. heminis” value in experiment [1] was determined as 100 ppm. Besides, the “MIC values E. coli” value in experiment [2] was over 100 ppm. In addition, the “MIC values A. niger” value in experiment [3] came to 100 ppm. Moreover, the “MIC values C. albicans” value in experiment [4] is recorded as over 100 ppm. In experiment [5], the “MIC values P. aeruginosa” value is recorded as over 100 ppm.
In the case of `COc1cc(/C=C/c2ccc(C)cc2)ccc1O` [Comp. of formula 184], the “MIC values S. heminis” value in experiment [1] was over 100 ppm. Besides, in experiment [2], the “MIC values E. coli” value is over 100 ppm. Also, the “MIC values A. niger” value in experiment [3] was 100 ppm. Further, in experiment [4], the “MIC values C. albicans” value is on record as over 100 ppm. Also, the “MIC values P. aeruginosa” value in experiment [5] is over 100 ppm.
For `Oc1ccccc1/C=C/c1ccc(Cl)cc1` [Comp. of formula 125], the “MIC values S. heminis” value in experiment [1] stood at 60 ppm. Also, in experiment [2], the “MIC values E. coli” value came out at 15 ppm. In addition, the “MIC values A. niger” value in experiment [3] is reported as 60 ppm. In addition, the “MIC values C. albicans” value in experiment [4] amounted to 60 ppm. Further, in experiment [5], the “MIC values P. aeruginosa” value worked out at 100 ppm.
`Cc1ccccc1/C=C/c1cccc(O)c1` [Comp. of formula 169]: the “MIC values S. heminis” value in experiment [1] worked out at 30 ppm. Also, in experiment [2], the “MIC values E. coli” value is listed as 60 ppm. The “MIC values A. niger” value in experiment [3] turned out to be 30 ppm. Further, the “MIC values C. albicans” value in experiment [4] turned out to be 30 ppm. Also, the “MIC values P. aeruginosa” value in experiment [5] came to 100 ppm.
As to `Cc1ccccc1/C=C/c1cccc(C)c1O` [Comp. of formula 177], the “MIC values S. heminis” value in experiment [1] amounted to 30 ppm. Further, the “MIC values E. coli” value in experiment [2] is recorded as 60 ppm. Besides, the “MIC values A. niger” value in experiment [3] amounted to 60 ppm. The “MIC values C. albicans” value in experiment [4] is listed as 60 ppm. Also, in experiment [5], the “MIC values P. aeruginosa” value is recorded as over 100 ppm.
For `CCOc1cc(/C=C/c2ccc(Cl)cc2)ccc1O` [Comp. of formula 122], the “MIC values S. heminis” value in experiment [1] was over 100 ppm. Besides, in experiment [2], the “MIC values E. coli” value was over 100 ppm. In addition, the “MIC values A. niger” value in experiment [3] is listed as over 100 ppm. Moreover, the “MIC values C. albicans” value in experiment [4] was over 100 ppm. For the same compound, the “MIC values P. aeruginosa” value in experiment [5] is given as over 100 ppm.
As for `Oc1ccc(/C=C/c2ccc(Cl)cc2)cc1` [Comp. of formula 119], the “MIC values S. heminis” value in experiment [1] worked out at 7.5 ppm. Also, the “MIC values E. coli” value in experiment [2] is recorded as over 100 ppm. In addition, the “MIC values A. niger” value in experiment [3] was 100 ppm. Besides, the “MIC values C. albicans” value in experiment [4] was determined as 15 ppm. In addition, in experiment [5], the “MIC values P. aeruginosa” value is recorded as over 100 ppm.
Consider `CCOc1cc(/C=C/c2ccc(-c3ccccc3)cc2)ccc1O` [Comp. of formula 147], for which the “MIC values S. heminis” value in experiment [1] is recorded as over 100 ppm. Moreover, in experiment [2], the “MIC values E. coli” value is recorded as over 100 ppm. Also, in experiment [3], the “MIC values A. niger” value is over 100 ppm. The “MIC values C. albicans” value in experiment [4] is over 100 ppm. In addition, the “MIC values P. aeruginosa” value in experiment [5] is over 100 ppm.
For the compound `Oc1cccc(/C=C/c2ccc(Cl)cc2)c1` [Comp. of formula 120], the “MIC values S. heminis” value in experiment [1] is listed as 7.5 ppm. Also, in experiment [2], the “MIC values E. coli” value is reported as 7.5 ppm. Further, the “MIC values A. niger” value in experiment [3] is 30 ppm. In experiment [4], the “MIC values C. albicans” value came to 7.5 ppm. In addition, the “MIC values P. aeruginosa” value in experiment [5] is over 100 ppm.
Take `COc1cc(/C=C/c2ccc(Cl)cc2)ccc1O` [Comp. of formula 123]: the “MIC values S. heminis” value in experiment [1] is given as over 100 ppm. For the same compound, the “MIC values E. coli” value in experiment [2] is over 100 ppm. For the same compound, the “MIC values A. niger” value in experiment [3] is 100 ppm. In addition, the “MIC values C. albicans” value in experiment [4] was over 100 ppm. Besides, the “MIC values P. aeruginosa” value in experiment [5] was over 100 ppm.
Turning to `Cc1cccc(/C=C/c2cccc3ccccc23)c1O` [Comp. of formula 165], the “MIC values S. heminis” value in experiment [1] turned out to be 100 ppm. For the same compound, the “MIC values E. coli” value in experiment [2] is over 100 ppm. For the same compound, the “MIC values A. niger” value in experiment [3] turned out to be 100 ppm. In addition, the “MIC values C. albicans” value in experiment [4] is on record as over 100 ppm. The “MIC values P. aeruginosa” value in experiment [5] is listed as over 100 ppm.
Turning to `CCOc1cc(/C=C/c2ccc(C)cc2)ccc1O` [Comp. of formula 183], the “MIC values S. heminis” value in experiment [1] is listed as over 100 ppm. Besides, in experiment [2], the “MIC values E. coli” value is listed as over 100 ppm. In addition, in experiment [3], the “MIC values A. niger” value is reported as over 100 ppm. The “MIC values C. albicans” value in experiment [4] is over 100 ppm. Also, the “MIC values P. aeruginosa” value in experiment [5] was over 100 ppm.
For the compound `Cc1ccccc1/C=C/c1ccc(O)cc1` [Comp. of formula 168], the “MIC values S. heminis” value in experiment [1] came to 7.5 ppm. Moreover, the “MIC values E. coli” value in experiment [2] was 30 ppm. In experiment [3], the “MIC values A. niger” value is reported as 30 ppm. For the same compound, the “MIC values C. albicans” value in experiment [4] is recorded as 15 ppm. Besides, the “MIC values P. aeruginosa” value in experiment [5] worked out at 100 ppm.
Consider `COc1cc(/C=C/c2ccc(C)cc2)cc(O)c1OC` [Comp. of formula 187], for which, in experiment [1], the “MIC values S. heminis” value is reported as over 100 ppm. Also, the “MIC values E. coli” value in experiment [2] is over 100 ppm. Besides, in experiment [3], the “MIC values A. niger” value is listed as over 100 ppm. The “MIC values C. albicans” value in experiment [4] is recorded as over 100 ppm. Further, the “MIC values P. aeruginosa” value in experiment [5] is over 100 ppm.
Turning to `Cc1ccc(/C=C/c2ccc(O)cc2)cc1` [Comp. of formula 180], the “MIC values S. heminis” value in experiment [1] turned out to be 100 ppm. The “MIC values E. coli” value in experiment [2] was over 100 ppm. Moreover, the “MIC values A. niger” value in experiment [3] is listed as over 100 ppm. Besides, the “MIC values C. albicans” value in experiment [4] is over 100 ppm. Also, the “MIC values P. aeruginosa” value in experiment [5] was over 100 ppm.
With `COc1cc(/C=C/c2ccc(Cl)cc2)cc(O)c1OC` [Comp. of formula 126], the “MIC values S. heminis” value in experiment [1] is on record as over 100 ppm. Also, in experiment [2], the “MIC values E. coli” value is reported as over 100 ppm. In experiment [3], the “MIC values A. niger” value is given as 100 ppm. Also, the “MIC values C. albicans” value in experiment [4] is on record as 100 ppm. In addition, the “MIC values P. aeruginosa” value in experiment [5] is given as over 100 ppm.
`Oc1ccccc1/C=C/c1ccccc1` [Comp. of formula 113]: in experiment [1], the “MIC values S. heminis” value was found to be 100 ppm. Further, the “MIC values E. coli” value in experiment [2] is on record as 100 ppm. In addition, the “MIC values A. niger” value in experiment [3] is 60 ppm. Moreover, in experiment [4], the “MIC values C. albicans” value amounted to 60 ppm. The “MIC values P. aeruginosa” value in experiment [5] is on record as over 100 ppm.
As to `Cc1ccc(/C=C/c2cccc(C)c2O)cc1` [Comp. of formula 189], the “MIC values S. heminis” value in experiment [1] is over 100 ppm. Besides, the “MIC values E. coli” value in experiment [2] is listed as 100 ppm. In addition, in experiment [3], the “MIC values A. niger” value is listed as over 100 ppm. Besides, the “MIC values C. albicans” value in experiment [4] is listed as over 100 ppm. Besides, the “MIC values P. aeruginosa” value in experiment [5] is reported as over 100 ppm.
In the case of `COc1ccc(/C=C/c2ccccc2C)cc1O` [Comp. of formula 170], the “MIC values S. heminis” value in experiment [1] is recorded as over 100 ppm. For the same compound, the “MIC values E. coli” value in experiment [2] is listed as over 100 ppm. For the same compound, in experiment [3], the “MIC values A. niger” value is reported as over 100 ppm. Also, the “MIC values C. albicans” value in experiment [4] was over 100 ppm. In addition, the “MIC values P. aeruginosa” value in experiment [5] was over 100 ppm.
On to `COc1cc(/C=C/c2ccc(-c3ccccc3)cc2)cc(O)c1OC` [Comp. of formula 151], for which, in experiment [1], the “MIC values S. heminis” value was over 100 ppm. Also, the “MIC values E. coli” value in experiment [2] was over 100 ppm. In addition, the “MIC values A. niger” value in experiment [3] is over 100 ppm. For the same compound, in experiment [4], the “MIC values C. albicans” value is given as over 100 ppm. Also, the “MIC values P. aeruginosa” value in experiment [5] is over 100 ppm.
Regarding `Cc1ccc(/C=C/c2ccccc2O)cc1` [Comp. of formula 186], the “MIC values S. heminis” value in experiment [1] is 30 ppm. The “MIC values E. coli” value in experiment [2] turned out to be 30 ppm. In experiment [3], the “MIC values A. niger” value is 60 ppm. Moreover, in experiment [4], the “MIC values C. albicans” value worked out at 30 ppm. Also, the “MIC values P. aeruginosa” value in experiment [5] was found to be 100 ppm.
